Reference: patent US20040023884A1, “Biologically active peptides from functional domains of bactericidal/permeability-increasing protein and uses thereof” (priority 1993, published 2004)
Square brackets hold non-standard residues; d marks the D form. Ends that are not written are not given here. 1Nal = N[C@@H](Cc1cccc2ccccc12)C(=O)O

Legend:
[1] = 3H-heparin binding assay (affinity and capacity); conditions: for Heparin Capacity: heparin bound at saturation; for Kd: read-out: Heparin Affinity
How it was run: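 Peptide fragments were bound to PVDF-membrane wells and incubated with 3H-heparin in blocking buffer for 1 h at 4 °C. After washing, bound radioactivity was quantified by liquid scintillation counting, with BSA background subtracted; rBPI23 served as positive control.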

[2] = system: rough mutant E. coli J5 bacteria; experiment: Radial diffusion bactericidal assay, E. coli J5; format: cell-based; conditions: radial diffusion; for bactericidal activity (in words): E. coli J5; for pmol added to well to achieve a 30 mm^2 bactericidal zone, E. coli J5: PROBIT analysis, E. coli J5 (rough)
How it was run: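 Log-phase bacteria, washed in 10 mM sodium phosphate pH 7.4, were seeded at 4×10^6 CFU/mL in underlayer agarose. BPI fragments (5 or 10 μL) went into 3 mm wells for 3 h at 37° C., then overlayer agarose was added. After overnight 37° C. incubation, clearing zones were measured by micrometer.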

[3] = system: E. coli 0111:B4 (smooth) bacteria; experiment: Radial diffusion bactericidal assay, E. coli 0111:B4; format: cell-based; conditions: radial diffusion; for pmol added to well to achieve a 30 mm^2 bactericidal zone, E. coli O111:B4: PROBIT analysis, E. coli O111:B4 (smooth); for bactericidal activity (in words): E. coli 0111:B4
RAW 264.7 cells = experiment: LPS neutralization cellular proliferation assay, RAW 264.7 cells; format: cell-based, mouse
How it was run: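 Mouse RAW 264.7 cells were primed 24 h with 50U/mL mouse γ-interferon, then exposed about 15 h to E. coli O113 LPS in serum-free RPMI with or without BPI peptides at 25 ng/mL–50 μg/mL. Proliferation was quantified by [^3H]-thymidine uptake, 1 μCi/well, added at 5 h.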

[4] = LPS binding by tryptophan fluorescence quenching; conditions: for Kd: Stern-Volmer plots
Source text: (§1) The naturally-occurring amino acid tryptophan can emit light (i.e., it fluoresces) having a wavelength between 300 and 400 nm after excitation with light having a wavelength of between about 280 nm and 290 nm, preferably 285 nm. The amount of emitted light produced by such fluorescence is known to be affected by the local environment, including pH and buffer conditions, as well as binding interactions between proteins and other molecules. Some BPI functional domain peptides derived from domains II and III contain tryptophan residues, and tryptophan fluorescence was used to assay binding interactions between the BPI functional domain peptides of the invention and LPS or heparin.
(§2) Tryptophan fluorescence of the BPI functional domain peptides of the invention was determined in the presence or absence of LPS or heparin using a SPEX Fluorolog fluorimeter. Samples were excited with 285 nm light using a 0.25 nm slitwidth. Emission wavelengths were scanned between 300-400 nm using a 1.25 nm slitwidth. Data were accumulated as the average of three determinations performed over an approximately 5 min time span. Samples were maintained at 25° C. or 37° C. during the course of the experiments using a circulating water bath. Crab endotoxin binding protein (CEBP), a protein wherein the intrinsic fluorescence of tryptophan residues is affected by binding to LPS, was used as a positive control. (See Wainwright et al., 1990, Cellular and Molecular Aspects of Endotoxin Reactions, Nowotny et al., eds., Elsevier Science Publishing B.V., The Netherlands, pp. 315-325).
(§3) Kd values were determined by Scatchard-type Stern-Volmer plots of the quenching data as the negative inverse of the slope of such plots. Comparing the data for BPI.10, BPI.46 and BPI.47, it is seen that as the Kd decreased (indicating an increase in avidity for LPS), the percent fluorescence quenching increased. The differences between these peptides include replacement of basic and polar amino acid residues with non-polar residues in […] as compared with BPI.10. In contrast, as the Kd of heparin binding decreased, a corresponding increase in the percentage of fluorescence quenching was not detected.

Staphylococcus aureus = experiment: Radial diffusion bactericidal assay, Staphylococcus aureus; format: cell-based; conditions: radial diffusion; PROBIT analysis; S. aureus
[5] = Heparin binding by tryptophan fluorescence quenching; conditions: for Kd: Stern-Volmer plots
Source text: as §1, §2, §3

[6] = system: Klebsiella pneumoniae 19645; experiment: Radial diffusion bactericidal assay, antibiotic resistant Klebsiella pneumoniae 19645; format: cell-based
Experimental: (§4) These studies were conducted substantially following the procedures used in Example 2.
In order to test the bactericidal activity of BPI peptides on antibiotic resistant strains of Klebsiella pneumoniae, the multi-resistant clinically isolated strain 19645 was tested as in Example 2 and above. […] This strain was obtained from the Baxter Microscan® library (Sacramento, Calif.). An overnight culture of Klebsiella pneumoniae 19645 and a non-resistant strain (ATCC 29011) were diluted 1:50 into fresh tryptic soy broth and incubated for 3 hours at 37° C. to attain log phase. The overnight cultures were tested as described in Example 2 and part A above.

[7] = system: multi-resistant strain E. coli 19536; experiment: Radial diffusion bactericidal assay, multi-antibiotic resistant E. coli 19536; format: cell-based
Experimental: as §4
In order to test the bactericidal activity of BPI peptides against multi-antibiotic resistant E. coli, a multi-resistant strain E. coli 19536 (ampR 16 μg/mL; ceftazidimeR>16 μg/mL; ceftriazoneR>16 μg/mL) was tested. This strain is a clinical isolate obtained from the Baxter Microscan® library (Sacramento, Calif.). An overnight culture of E. coli 19536 was tested as described in Example 2 and part A above. Test BPI peptides were 2-fold serially diluted in D-PBS starting at about 1 mg/mL.

E. coli J5 (rough) = experiment: Broth antibacterial assay, E. coli J5; format: cell-based
Experimental: (§5) In additional experiments, broth antibacterial assays were conducted to further determine the bactericidal activity of certain of the BPI peptides. Specifically, either E. coli J5 (rough) or E. coli 0111:B4 (smooth) bacteria were selected from single colonies on agar plates and used to inoculate 5 mL of Mueller Hinton broth and incubated overnight at 37° C. with shaking. The overnight culture was diluted (˜1:50) into 5 mL fresh broth and incubated at 37° C. to log phase (˜3 hours). Bacteria were pelleted for 5 minutes at 3000 rpm (1500×g). Bacterial pellets were resuspended in 5 mL PBS and diluted to 2×10^6 cells/mL in the Mueller Hinton broth (wherein 1 OD570 unit equals 1.25×10^9 CFU/mL). The BPI functional domain peptides to be tested were diluted to 200 μg/mL in broth and serially diluted 2-fold in 96 well culture plates (100 μL volume). All items were at 2-fold final concentration and experiments were conducted in triplicate. Bacteria were added at 100 μL/well and the plates were incubated on a shaker at 37° C. for a 20 hour period. The plates were then read on an ELISA plate multiple reader at 590 nm. One of the triplicate wells from each peptide concentration was selected for colony forming unit (CFU) determination. A 30 μL aliquot was added to 270 μL of PBS and further ten-fold serial dilutions were performed. Then a 50 μL aliquot was plated on tryptic soy agar and incubated overnight. Colonies were counted and final bacterial concentrations determined. The results of these assays are depicted in FIGS. 9e (for E. coli J5) and 9f (for E. coli 0111:B4).

E. coli 0111:B4 (smooth) = experiment: Broth antibacterial assay, E. coli 0111:B4; format: cell-based
Experimental: as §5

C. albicans = experiment: Radial diffusion fungicidal assay, Candida albicans; format: cell-based; conditions: radial diffusion

| Substance | heparin binding capacity (in words) [1] | Heparin Capacity [1] [ng] | Kd [1] [nM] | bactericidal activity (in words) [2] | pmol added to well to achieve a 30 mm^2 bactericidal zone, E. coli J5 [2] [pmol] | pmol added to well to achieve a 30 mm^2 bactericidal zone, E. coli O111:B4 [3] | EC50 (peptide concentration at which the growth inhibitory effect of LPS was reversed by 50%) (RAW 264.7 cells) [µg/mL] | IC50 (peptide concentration at which RAW cell growth was inhibited by 50%) (RAW 264.7 cells) [µg/mL] | Quenching LPS [4] [%] | Kd [4] [nM] | pmol added to well to achieve a 30 mm^2 bactericidal zone, S. aureus (Staphylococcus aureus) | Quenching Heparin [5] [%] | Kd [5] [nM] | bactericidal activity (in words) [6] | bactericidal activity (in words) [7] | bactericidal activity (in words) (E. coli J5 (rough)) | bactericidal activity (in words) [3] | bactericidal activity (in words) (E. coli 0111:B4 (smooth)) | C. albicans: pmol required for 30 mm^2 zone (C. albicans) [pmol] |
| --- | --- | --- | --- | --- | --- | --- | --- | --- | --- | --- | --- | --- | --- | --- | --- | --- | --- | --- | --- |
| KWKAQKRFLKKWKAAARFLK [BPI.47] | extremely high heparin capacity | 576.4 | 1910 | highly bactericidal | 97.73 | 576.74 pmol | 0.9 ± 0.3 | 9.8 ± 0.1 | 41 | 115 | 41,213.59 pmol | 47 | 2200 |  |  |  |  |  |  |
| IKISGKAβ-(1-naphthyl)KAAβ-(1-naphthyl)KRFLK (IKISGK[1Nal]KA[1Nal]KRFLK) [BPI.119] |  |  |  |  | 106.70 | 536.44 pmol |  |  |  |  | 166,163.83 pmol |  |  | active against antibiotic resistant Klebsiella |  |  |  |  |  |
| KWKAAARFLKKWKAAARFLKKWKAAARFLK [BPI.69] | extremely high heparin capacity | 450.8 | 967 | highly bactericidal | 56.68 | 244.07 pmol | 0.11 ± 0.07 | 2.4 ± 0.3 | 72 | 58 | 1,057.56 pmol | 42 | 400 | active against antibiotic resistant Klebsiella | activity against multi-antibiotic resistant E. coli |  |  |  |  |
| BPI 73 (IKISGKWKAQFRFLK) |  |  |  |  |  |  |  |  | 47 | 66 |  | 19 | 700 |  |  |  |  |  |  |
| KRFLKKWKAQKRFLKKWKAQKRFLK [BPI.10.1] |  |  |  | exhibited bactericidal activity |  |  |  |  |  |  |  |  |  |  |  | significant bactericidal activity | exhibited bactericidal activity | significant bactericidal activity |  |
| IKISGKWKAWKRFLKK [BPI.103] |  |  |  |  | 165.18 | 415.19 pmol |  |  |  |  | 4,705.95 pmol |  |  | active against antibiotic resistant Klebsiella |  |  |  |  |  |
| IKISGKWKAQKRFLKKSKVGWLIQLFHKK [BPI.63] | extremely high heparin capacity | 305.1 | 600 | highly bactericidal | 86.94 | 511.61 pmol | 0.08 ± 0.02 | 7.1 ± 0.02 |  |  | 2,101.84 pmol |  |  | active against antibiotic resistant Klebsiella | activity against multi-antibiotic resistant E. coli |  |  |  | >1006.34 |
| KRFLKKWKAQKRFLK [BPI.9] |  | 212.5 | 1140 | exhibited bactericidal activity | 476.60 | 5,337.50 pmol |  |  |  |  |  |  |  |  |  | significant bactericidal activity | exhibited bactericidal activity | significant bactericidal activity |  |
| QKRFLKKWKAQKRFLKKWKAQKRFLK [BPI.10.2] |  |  |  | exhibited bactericidal activity |  |  |  |  |  |  |  |  |  |  |  | significant bactericidal activity | exhibited bactericidal activity | significant bactericidal activity |  |
| IKISGKWKAFFRFLK [BPI.88] |  | 352.8 | 1630 |  | 70.32 | 540.15 pmol | >50 | 6.2 ± 7.5 |  |  | 9,051.04 pmol |  |  |  | activity against multi-antibiotic resistant E. coli |  |  |  |  |
